Target: T1, L-asparaginase (ansA) (Streptomyces griseus, UniProt Q54237)
T1 construct: gene orf4; full-length ORF (987 bp, 328 residues, 33721 Da) in pQE30, expressed in E. coli M15(pREP4); unpurified expressed cells; 34 kDa band on SDS-PAGE
T1 sequence (Q54237 1-328): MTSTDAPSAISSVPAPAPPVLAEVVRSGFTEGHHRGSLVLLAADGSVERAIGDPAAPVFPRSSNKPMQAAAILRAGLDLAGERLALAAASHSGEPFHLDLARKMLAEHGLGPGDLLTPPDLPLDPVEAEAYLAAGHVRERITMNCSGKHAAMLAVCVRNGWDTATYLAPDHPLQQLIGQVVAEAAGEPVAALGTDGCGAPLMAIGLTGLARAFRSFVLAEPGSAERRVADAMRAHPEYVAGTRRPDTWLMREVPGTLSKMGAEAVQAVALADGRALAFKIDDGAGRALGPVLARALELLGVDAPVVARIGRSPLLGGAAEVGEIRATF
Assay: ammonia release, Nesslerization
Type: cell-based
Conditions: recombinant E. coli M15 expressed cells compared with control cells; host background activity present

## NC(=O)C[C@H](N)C(=O)O [L-asparagine]
  ammonia release, Nesslerization: The expression of asparaginase biosynthetic gene was confirmed by Nesslerization assay

Source: article PMC4513294, “L-Asparaginase from Streptomyces griseus NIOT-VKMA29: optimization of process variables using factorial designs and molecular characterization of L-asparaginase gene” (Scientific Reports, 2015)
